This assay relates to L1210 leukemia ip in BDF1 mice, survival T/C. As to the kind of experiment: NCI In Vivo Anticancer Drug Screen. Data for tumor model L1210 Leukemia (intraperitoneal) in B6D2F1 (BDF1) mice. As to conditions: endpoint: mean survival time, higher = longer survival. The essentials:
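Transplanted-tumor mice were given test agent; controls received vehicle only. Survival readings from the two groups were divided (treated over control).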

The mark [1] stands for this setting: dose: 100.0 mg/kg/injection, schedule: Q01DX009 (ip), vehicle: saline with Tween-80.
Where [2] appears, read: dose: 100.0 mg/kg/injection, schedule: Q04DX003 (ip), vehicle: saline with Tween-80.
The mark [3] stands for this setting: dose: 200.0 mg/kg/injection, schedule: Q04DX003 (ip), vehicle: saline with Tween-80.
Setting [4] is: dose: 400.0 mg/kg/injection, schedule: Q04DX003 (ip), vehicle: saline with Tween-80.
Where [5] appears, read: dose: 75.0 mg/kg/injection, schedule: Q01DX001 (ip), vehicle: other.
Setting [6] is: dose: 100.0 mg/kg/injection, schedule: Q01DX001 (ip), vehicle: saline.
[7] abbreviates: dose: 200.0 mg/kg/injection, schedule: Q01DX001 (ip), vehicle: saline.
The mark [8] stands for this setting: dose: 400.0 mg/kg/injection, schedule: Q01DX001 (ip), vehicle: saline.
Where [9] appears, read: dose: 100.0 mg/kg/injection, schedule: Q04DX003 (ip), vehicle: Klucel (hydroxypropylcellulose) (HPC).
Setting [10] is: dose: 200.0 mg/kg/injection, schedule: Q04DX003 (ip), vehicle: Klucel (hydroxypropylcellulose) (HPC).
Setting [11] is: dose: 400.0 mg/kg/injection, schedule: Q04DX003 (ip), vehicle: Klucel (hydroxypropylcellulose) (HPC).
The mark [12] stands for this setting: dose: 100.0 mg/kg/injection, schedule: Q04DX003 (ip), vehicle: saline.
[13] abbreviates: dose: 200.0 mg/kg/injection, schedule: Q04DX003 (ip), vehicle: saline.
The mark [14] stands for this setting: dose: 400.0 mg/kg/injection, schedule: Q04DX003 (ip), vehicle: saline.
[15] abbreviates: dose: 100.0 mg/kg/injection, schedule: Q04DX002 (ip), vehicle: saline with Tween-80.

Several values for one entry are separate records, joined by “and”; a condition that tells them apart may be missing. Equal entries are not always repeated. Toxic doses and inconclusive results are not listed.

Regarding `CCN(CC)CCNc1ccc([N+](=O)[O-])c2sc3ccccc3c(=O)c12`, the T/C is, setting by setting: (dose: 17.7 mg/kg/injection, schedule: Q01DX Z (ip), vehicle: carboxymethylcellulose (CMC)) 121 % of control; (dose: 37.0 mg/kg/injection, schedule: Q01DX Z (ip), vehicle: methylcellulose (MC)) 223 % of control; (dose: 40.0 mg/kg/injection, schedule: Q01DX Z (ip), vehicle: carboxymethylcellulose (CMC)) 152 % of control; (dose: 56.0 mg/kg/injection, schedule: Q01DX Z (ip), vehicle: methylcellulose (MC)) 201 % of control; (dose: 60.0 mg/kg/injection, schedule: Q01DX Z (ip), vehicle: carboxymethylcellulose (CMC)) 156 % of control; (dose: 90.0 mg/kg/injection, schedule: Q01DX Z (ip), vehicle: carboxymethylcellulose (CMC)) 181 % of control. The T/C (dose: 126.0 mg/kg/injection, schedule: Q01DX Z (ip), vehicle: methylcellulose (MC)) is 115 % of control.
Regarding `CCCCC/C(C=O)=C\c1ccccc1`, the T/C runs as follows: under setting [1], 104 % of control; under setting [2], 94 % of control; (dose: 200.0 mg/kg/injection, schedule: Q01DX009 (ip), vehicle: saline with Tween-80) 91 % of control; under setting [3], 96 % of control; (dose: 400.0 mg/kg/injection, schedule: Q01DX009 (ip), vehicle: saline with Tween-80) 93 % of control; under setting [4], 105 % of control.
Take `NC(=O)N/N=C1/C=C2CCCCC2CC1` (stereo not drawn): the T/C reads like this: under setting [5], 101 % of control; (dose: 150.0 mg/kg/injection, schedule: Q01DX001 (ip), vehicle: other) 95 % of control; (dose: 300.0 mg/kg/injection, schedule: Q01DX001 (ip), vehicle: other) 100 % of control.
`CCCC/C(=N\OC(=O)N(C)C)c1ccccc1`: the T/C is 103 % of control under setting [6], 98 % of control under setting [7] and 98 % of control under setting [8].
In the case of `CCCCSc1nc2ccccc2c(=O)n1-c1ccccc1`, the T/C is, setting by setting: (dose: 100.0 mg/kg/injection, schedule: Q01DX001 (ip), vehicle: saline with Tween-80) 100 % of control; (dose: 200.0 mg/kg/injection, schedule: Q01DX001 (ip), vehicle: saline with Tween-80) 103 % of control; (dose: 400.0 mg/kg/injection, schedule: Q01DX001 (ip), vehicle: saline with Tween-80) 97 % of control.
`O=C1NCC2(O1)c1ccccc1-c1ccccc12`: the T/C reads like this: (dose: 25.6 mg/kg/injection, schedule: Q04DX002 (ip), vehicle: saline with Tween-80) 92 % of control; (dose: 64.0 mg/kg/injection, schedule: Q04DX002 (ip), vehicle: saline with Tween-80) 98 % of control; (dose: 160.0 mg/kg/injection, schedule: Q04DX002 (ip), vehicle: saline with Tween-80) 113 % of control.
Take `O=C(O)C1C(c2ccccc2)CC(=O)N1c1ccc(Cl)cc1` (stereo not drawn): the T/C reads like this: (dose: 100.0 mg/kg/injection, schedule: Q04DX002 (ip), vehicle: Klucel (hydroxypropylcellulose) (HPC)) 102 % of control; (dose: 200.0 mg/kg/injection, schedule: Q04DX002 (ip), vehicle: Klucel (hydroxypropylcellulose) (HPC)) 91 % of control; (dose: 400.0 mg/kg/injection, schedule: Q04DX002 (ip), vehicle: Klucel (hydroxypropylcellulose) (HPC)) 94 % of control.
For `COc1cc2c3cc1Oc1c(OC)c(OC)cc4c1C(Cc1ccc(OC(C)=O)c(c1)Oc1ccc(cc1)CC3N(C)CC2)N(C)CC4` (stereo not drawn), the T/C is 108 % of control under setting [2], 101 % of control under setting [3] and 103 % of control under setting [4].
Turning to `CCCCCCCCCCCC(=O)[O][Hg][c]1ccccc1`, the T/C under setting [5] is 91 % of control.
Take `CC1CN(C2CC3OCC3O2)C(=O)NC1=O` (stereo not drawn): the T/C was 103 % of control under setting [6], 98 % of control under setting [7] and 98 % of control under setting [8].
As to `COc1cc(C=O)ccc1OC(=O)Nc1ccc([N+](=O)[O-])cc1Cl`, the T/C is 98 % of control (dose: 100.0 mg/kg/injection, schedule: Q01DX009 (ip), vehicle: Klucel (hydroxypropylcellulose) (HPC)); 103 % of control under setting [9]; 98 % of control (dose: 200.0 mg/kg/injection, schedule: Q01DX009 (ip), vehicle: Klucel (hydroxypropylcellulose) (HPC)); 97 % of control under setting [10]; 98 % of control (dose: 400.0 mg/kg/injection, schedule: Q01DX009 (ip), vehicle: Klucel (hydroxypropylcellulose) (HPC)); 105 % of control under setting [11].
`Cc1cccc(Cl)c1NC(=O)CN(C)C`: the T/C is 104 % of control under setting [6] and 98 % of control under setting [7].
On to `OCCN1CCNCC1`, for which the T/C under setting [6] was 105 % of control, the T/C under setting [7] was 105 % of control and the T/C under setting [8] is 100 % of control.
With `O=C1NC2(c3ccccc3)NC(=O)NC2(c2ccccc2)N1` (stereo not drawn), the T/C was 97 % of control under setting [6]; 91 % of control (dose: 100.0 mg/kg/injection, schedule: Q01DX009 (ip), vehicle: saline); 102 % of control under setting [12]; 92 % of control under setting [7]; 97 % of control (dose: 200.0 mg/kg/injection, schedule: Q01DX009 (ip), vehicle: saline); 95 % of control under setting [13]. Moreover, the T/C under setting [8] is 100 % of control; the T/C (dose: 400.0 mg/kg/injection, schedule: Q01DX009 (ip), vehicle: saline) was 102 % of control; the T/C under setting [14] was 102 % of control.
On to `O=C(Nc1cccc(C(F)(F)F)c1)Nc1cccc(C(F)(F)F)c1`, for which the T/C is 94 % of control and 91 % of control (dose: 100.0 mg/kg/injection, schedule: Q01DX001 (ip), vehicle: Klucel (hydroxypropylcellulose) (HPC)); 97 % of control and 87 % of control under setting [2]; 98 % of control (dose: 200.0 mg/kg/injection, schedule: Q01DX001 (ip), vehicle: Klucel (hydroxypropylcellulose) (HPC)); 99 % of control and 87 % of control under setting [3]; 94 % of control (dose: 400.0 mg/kg/injection, schedule: Q01DX001 (ip), vehicle: Klucel (hydroxypropylcellulose) (HPC)); 97 % of control and 89 % of control under setting [4].
As for `Cc1cc(C2=NCC(C)(C)S2)ccc1O`, the T/C (dose: 25.0 mg/kg/injection, schedule: Q01DX005 (ip), vehicle: saline with Tween-80) was 92 % of control; the T/C (dose: 25.0 mg/kg/injection, schedule: Q01DX009 (ip), vehicle: saline with Tween-80) is 91 % of control; the T/C (dose: 50.0 mg/kg/injection, schedule: Q01DX005 (ip), vehicle: saline with Tween-80) is 92 % of control; the T/C (dose: 50.0 mg/kg/injection, schedule: Q01DX009 (ip), vehicle: saline with Tween-80) was 98 % of control; the T/C (dose: 100.0 mg/kg/injection, schedule: Q01DX005 (ip), vehicle: saline with Tween-80) is 93 % of control and 105 % of control; the T/C under setting [1] is 98 % of control. Further, the T/C reads like this: under setting [15], 100 % of control; (dose: 200.0 mg/kg/injection, schedule: Q04DX002 (ip), vehicle: saline with Tween-80) 96 % of control; (dose: 400.0 mg/kg/injection, schedule: Q04DX002 (ip), vehicle: saline with Tween-80) 88 % of control.
With `CC1=CC(C)(C)NC(=S)N1c1ccc(C)cc1`, the T/C reads like this: under setting [9], 104 % of control; under setting [10], 93 % of control; under setting [11], 91 % of control.
With `Clc1ccccc1-c1nc2ccccc2cc1Cl`, the T/C runs as follows: under setting [6], 92 % of control; under setting [7], 88 % of control; under setting [8], 94 % of control.
For `c1ccc(OCC2(N3CCCCC3)CCCC2)cc1`, under setting [15], the T/C is 97 % of control.
`O=C(CCCC(=O)NNC(=O)Nc1cccc2ccccc12)NNC(=O)Nc1cccc2ccccc12`: the T/C is 98 % of control (dose: 50.0 mg/kg/injection, schedule: Q01DX001 (ip), vehicle: saline); 96 % of control under setting [6]; 87 % of control under setting [7].
As to `Nc1ccc(CCO)cc1`, the T/C is, setting by setting: under setting [12], 105 % of control; under setting [13], 96 % of control; under setting [14], 96 % of control.

Source of the values: PubChem BioAssay AID248 (DTP/NCI, 2004).
